Test results: the supplement of paper PMC10307832

What was measured:
Experiment in all cases: relative viability (nuclei count vs DMSO), 5 days (fraction); higher = more cells survive
[1] = compound: CN1C=C(C2=CC=CC=C21)/C=C\3/C4=C(C=CC=N4)NC3=O
Procedure, shortened: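 MetaXpress counted nuclei in 4× images of lung cancer cell lines that had been fixed, permeabilised and Hoechst-stained in one step. Before that, cells in 1536-well plates were kept overnight at 37 °C, pinned with five √10-spaced library-drug doses on vehicle-anchored plates, and cultured 5 days without medium change. Viability takes treated-well nuclei over vehicle-well nuclei and uses the median across plates. Plates were accepted only at control CV below 25% and at least one doubling.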

[2] = compound: CN1C=C(C2=CC=CC=C21)/C=C\3/C4=C(C=CC=N4)NC3=O + Cc1cc(Nc2cc(N3CCN(C)CC3)nc(Sc3ccc(NC(=O)C4CC4)cc3)n2)n[nH]1 [Tozasertib] (partner 0.1 µM)
Procedure, shortened: (§1)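 The day after seeding in 1536-well plates, lung cancer cell lines were treated by pin tool with a single drug, or with a fixed anchor-drug dose together with five library-drug doses (not always all listed) in √10 steps. After 5 days, a combined fix-and-stain solution (final 0.05% Triton X-100, 1% formaldehyde, 1 ug/ml Hoechst) was added. Nuclei counted on 4× images gave relative viability as treated counts over vehicle counts, reported as the median of duplicate plates.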

[3] = compound: CC(=O)Nc1cccc(-n2c(=O)n(C3CC3)c(=O)c3c(Nc4ccc(I)cc4F)n(C)c(=O)c(C)c32)c1 [Trametinib] + N=C(N)NC(=N)NCCc1ccccc1 [Phenformin] (partner 250 µM)
Procedure, shortened: as §1

[4] = compound: CN1C=C(C2=CC=CC=C21)/C=C\3/C4=C(C=CC=N4)NC3=O + CS(=O)(=O)CCNCc1ccc(-c2ccc3ncnc(Nc4ccc(OCc5cccc(F)c5)c(Cl)c4)c3c2)o1 [Lapatinib] (partner 2 µM)
Procedure, shortened: as §1

Cell Line	relative viability ([1]; 0.02 µM)	relative viability ([1]; 0.06325 µM)	relative viability ([1]; 0.2 µM)	relative viability ([1]; 0.6325 µM)	relative viability ([1]; 2 µM)	relative viability ([2]; first compound 0.02 µM)	relative viability ([2]; first compound 0.06325 µM)	relative viability ([2]; first compound 0.2 µM)	relative viability ([2]; first compound 0.6325 µM)	relative viability ([2]; first compound 2 µM)	relative viability ([3]; first compound 0.0025 µM)	relative viability ([3]; first compound 0.007906 µM)	relative viability ([3]; first compound 0.025 µM)	relative viability ([3]; first compound 0.07906 µM)	relative viability ([3]; first compound 0.25 µM)	relative viability ([4]; first compound 0.02 µM)	relative viability ([4]; first compound 0.06325 µM)	relative viability ([4]; first compound 0.2 µM)	relative viability ([4]; first compound 0.6325 µM)	relative viability ([4]; first compound 2 µM)
201T	0.951	0.979	0.988	0.916	0.971	1	0.96	0.947	0.897	0.781	0.397	0.412	0.44	0.437	0.423	0.993	1.05	1.04	1.06	1.04
A549	0.935	0.992	0.767	0.923	0.989						0.166	0.153	0.125	0.116	0.058	1.08	0.873	0.91	0.932	1.05
A-427	1.06	0.955		1.04	1.03	0.203	0.207		0.201	0.166	0.234	0.286	0.22	0.207	0.137	0.972	1.04		0.998	1.07
ABC-1	0.829	0.896	0.709	0.857	0.764	0.173	0.18	0.172	0.173	0.183	0.236	0.259	0.226	0.213	0.221	1.39	1.16	1.12	1.25	1.28
BEN	0.863	0.872	0.701	0.755	1.05	0.475	0.445	0.443	0.634	0.761	0.264	0.258	0.247	0.278	0.275	0.685	0.718	0.559	0.585	0.785
CAL-12T	0.894	0.873	0.98	0.972	0.924	0.343	0.255	0.247	0.324	0.206	0.457	0.376	0.295	0.267	0.229	0.652	0.625	0.574	0.717	0.839
COR-L23	0.992	0.994	1.09	1.12	1	0.21	0.187	0.222	0.162	0.151	0.479	0.437	0.384	0.388	0.269	0.973	0.92	1.16	0.923	1.12
COR-L 105	0.803	0.838	0.837	1.05	1.02	0.311	0.311	0.378	0.364	0.36	0.421	0.354	0.293	0.277	0.213	0.33	0.334	0.362	0.344	0.397
